Structures can show the parent of a compound that is named as a salt.

kinase domain of IRE1 alpha (His-tagged kinase dead construct KR, AA G547-L977, D688N), sequence (O75460 547-977 D688N): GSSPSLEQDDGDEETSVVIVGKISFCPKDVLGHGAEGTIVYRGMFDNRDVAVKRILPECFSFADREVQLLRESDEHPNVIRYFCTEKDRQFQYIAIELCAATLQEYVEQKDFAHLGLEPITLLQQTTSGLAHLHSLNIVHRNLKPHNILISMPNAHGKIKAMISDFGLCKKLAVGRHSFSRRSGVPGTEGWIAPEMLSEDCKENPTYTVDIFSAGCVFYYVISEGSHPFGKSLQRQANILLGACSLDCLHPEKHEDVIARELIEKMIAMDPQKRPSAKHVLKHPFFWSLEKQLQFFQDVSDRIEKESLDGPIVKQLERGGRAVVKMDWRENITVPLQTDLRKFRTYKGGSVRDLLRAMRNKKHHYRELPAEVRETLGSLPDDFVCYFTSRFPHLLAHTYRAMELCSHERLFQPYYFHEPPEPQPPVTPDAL

This experiment has as its target kinase domain of IRE1 alpha (His-tagged kinase dead construct KR, AA G547-L977, D688N) (Homo sapiens (Human), UniProt O75460, D688N). The experiment can be described thus: IRE1α TR-FRET competition binding assay. As to conditions: competition with Kinase Tracer 236, 0.1 μM; one hour at room temperature. The protocol:
To determine the affinity of compound binding to the kinase domain of IRE1 alpha, a Time Resolved Fluorescence Resonance Energy Transfer (TR-FRET) competition assay was used. A His-tagged IRE1 alpha kinase dead construct containing the kinase and RNase domains (KR, AA G547-L977, D688N) was expressed in Sf9 insect cells. The purified protein (final concentration 0.006 μM micromolar) was pre-incubated with anti-His Europium labeled antibody (Life Technologies PV5596, final concentration 0.002 μM micromolar) for one hour at 4° C. in 1X TR-FRET Assay Buffer (50 mM HEPES, pH 7.5.10 mM MgCl2, 0.083 mM Brij 35, 1 mM DTT, and 0.1% bovine gamma globulin) prior to addition to test compounds. A fluorescent labeled probe based on an ATP competitive inhibitor (Kinase Tracer 236, Life Technologies PV5592) is added to a final concentration of 0.1 μM (micromolar). Reactions were carried out for one hour at room temperature in a final volume of 20 μL (microliter) in 384 well white ProxiPlates (Perkin Elmer 6008289). Binding of the tracer to the IRE1 protein alpha was detected in an Envision instrument (PerkinElmer) equipped with a TRF laser option and a LANCE/Delfia Dual/Bias D400/D630 mirror (Ex 347 nm, 1st Em 665 nm, 2nd Em 615 nm).
Exemplary compounds in Table A1 were tested in the IRE1α binding assays.
The molecule `CS(=O)(=O)c1ccc(CS(=O)(=O)Nc2c(F)cc(Oc3ncccc3-c3ccnc(N[C@@H]4CNC[C@@H](F)C4)n3)c(F)c2F)cc1` [Compound 312, 1-(4-(Methylsulfonyl)phenyl)-N-(2,3,6-trifluoro-4-((3-(2-(((3S,5S)-5-fluoropiperidin-3-yl)amino)pyrimidin-4-yl)pyridin-2-yl)oxy)phenyl)methanesulfonamide] gave an IC50 of 0.14 nM. With `O=S(=O)(Cc1ccccc1)Nc1cc(F)c(Oc2ncccc2-c2ccnc(N[C@H]3CCCNC3)n2)c(F)c1F` [Compound 156, (S)-1-phenyl-N-(2,3,5-trifluoro-4-((3-(2-(piperidin-3-ylamino)pyrimidin-4-yl)pyridin-2-yl)oxy)phenyl)methanesulfonamide hydrochloride], the half-maximal inhibitory concentration (IC50) turned out to be 4.6 nM. As for `O=S(=O)(Cc1ccccc1)Nc1c(F)cc(Oc2ncccc2-c2ccnc(N[C@H]3CCCNC3)n2)cc1F` [Compound 152, (S)-N-(2,6-difluoro-4-((3-(2-(piperidin-3-ylamino)pyrimidin-4-yl)pyridin-2-yl)oxy)phenyl)-1-phenylmethanesulfonamide hydrochloride], the IC50 turned out to be 3.9 nM. Under `Cc1ccc(CS(=O)(=O)Nc2c(C)cc(Oc3ncccc3-c3ccnc(N[C@@H]4CNC[C@@](C)(F)C4)n3)c(F)c2F)cc1` [Compound 305, N-(2,3-Difluoro-4-((3-(2-(((3S,5S)-5-fluoro-5-methylpiperidin-3-yl)amino)pyrimidin-4-yl)pyridin-2-yl)oxy)-6-methylphenyl)-1-(p-tolyl)methanesulfonamide] stands 0.21 nM; under `Cc1cc(F)ccc1CS(=O)(=O)Nc1c(F)cc(Oc2ncccc2-c2ccnc(N[C@@H]3CNC[C@@H](F)C3)n2)c(F)c1F` [Compound 322, 1-(4-Fluoro-2-methylphenyl)-N-(2,3,6-trifluoro-4-((3-(2-(((3S,5S)-5-fluoropiperidin-3-yl)amino)pyrimidin-4-yl)pyridin-2-yl)oxy)phenyl)methanesulfonamide], 0.42 nM.

Molecule `CC(F)(F)C1CNCC(Nc2nccc(-c3cccnc3Oc3cc(F)c(NS(=O)(=O)Cc4ccccc4)c(F)c3F)n2)C1` (single isomer, unassigned) [Compound 338, N-(4-((3-(2-((5-(1, l-Difluoroethyl)piperidin-3-yl)amino)pyrimidin-4-yl)pyridin-2-yl)oxy)-2,3,6-trifluorophenyl)-1-phenylmethanesulfonamide] returned a half-maximal inhibitory concentration (IC50) of 2.6 nM. `O=S(=O)(Cc1ccccn1)Nc1ccc(Oc2ncccc2-c2ccnc(N[C@H]3CCCNC3)n2)c(F)c1F` [Compound 238, (S)—N-(2,3-Difluoro-4-(3-(2-(piperidin-3-ylamino)pyrimidin-4-yl)pyridin-2-yloxy)phenyl)-1-(pyridin-2-yl)methanesulfonamide]: the IC50 turned out to be 14 nM. Under `O=C(NCc1cccc(Oc2ncccc2-c2ccnc(N[C@H]3CCCNC3)n2)c1F)C1CC1` [Compound 197, (S)—N-(2-Fluoro-3-((3-(2-(piperidin-3-ylamino)pyrimidin-4-yl)pyridin-2-yl)oxy)benzyl)cyclopropanecarboxamide] stands 490 nM. Consider `Cc1c(Oc2ncccc2-c2ccnc(N[C@@H]3CNC[C@H](C)C3)n2)cc(F)c(NS(=O)(=O)Cc2ccccc2)c1F` [Compound 164, N-(2,6-Difluoro-3-methyl-4-((3-(2-(((3S,5R)-5-methyl-3-piperidyl)amino)pyrimidin-4-yl)-2-pyridyl)oxy)phenyl)-1-phenyl-methanesulfonamide], for which the 50% inhibitory concentration (IC50) came out at 4 nM. Under `Cc1cccc(CS(=O)(=O)Nc2c(F)cc(Oc3ncccc3-c3ccnc(N[C@@H]4CNC[C@@H](F)C4)n3)c(F)c2F)c1` [Compound 383, 1-m-Tolyl-N-(2,3,6-trifluoro-4-((3-(2-(((3S,5S)-5-fluoropiperidin-3-yl)amino)pyrimidin-4-yl)pyridin-2-yl)oxy)phenyl)methanesulfonamide] stands 0.7 nM; under `O=S(=O)(Cc1ccccc1)Nc1c(F)cc(Oc2ncccc2-c2ccnc(NC3CNCC4(C3)CC4(F)F)n2)c(F)c1F` (single isomer, unassigned) [Compound 300, N-(4-((3-(2-((1,1-Difluoro-5-azaspiro[2.5]octan-7-yl)amino)pyrimidin-4-yl)pyridin-2-yl)oxy)-2,3,6-trifluorophenyl)-1-phenylmethanesulfonamide], 8.7 nM; under `O=S(=O)(Cc1ccc(F)c(Cl)c1)Nc1c(F)cc(Oc2ncccc2-c2ccnc(N[C@@H]3CNC[C@@H](F)C3)n2)c(F)c1F` [Compound 366, 1-(3-Chloro-4-fluoro-phenyl)-N-[2,3,6-trifluoro-4-[[3-[2-[[(3S,5S)-5-fluoro-3-piperidyl]amino]pyrimidin-4-yl]-2-pyridyl]oxy]phenyl]methanesulfonamide], 0.2 nM.

In turn, `O=S(=O)(Cc1ccc(F)cc1)Nc1c(F)cc(Oc2ncccc2-c2ccnc(N[C@@H]3CNC[C@@H](F)C3)n2)c(F)c1F` [Compound 372, 1-(4-Fluorophenyl)-N-(2,3,6-trifluoro-4-((3-(2-(((3S,5S)-5-fluoropiperidin-3-yl)amino)pyrimidin-4-yl)pyridin-2-yl)oxy)phenyl)methanesulfonamide] registered a 50% inhibitory concentration (IC50) of 0.2 nM.

As for `O=S(=O)(CC1CC1(F)F)Nc1c(F)cc(Oc2ncccc2-c2ccnc(N[C@@H]3CNC[C@@H](F)C3)n2)c(F)c1F` (stereo partly drawn) [Compound 271, 1-(2,2-Difluorocyclopropyl)-N-(2,3,6-trifluoro-4-((3-(2-(((3S,5S)-5-fluoropiperidin-3-yl)amino)pyrimidin-4-yl)pyridin-2-yl)oxy)phenyl)methanesulfonamide], the IC50 is 3.6 nM. `C[C@@]1(F)CNC[C@@H](Nc2nccc(-c3cccnc3Oc3cc(F)c(NS(=O)(=O)CC4CCC4)c(F)c3F)n2)C1` [Compound 202, 1-cyclobutyl-N-(2,3,6-trifluoro-4-((3-(2-(((3S,5S)-5-fluoro-5-methylpiperidin-3-yl)amino)pyrimidin-4-yl)pyridin-2-yl)oxy)phenyl)methanesulfonamide] gave an IC50 of 4.4 nM. Under `O=S(=O)(Cc1ccc(C(F)(F)F)nc1)Nc1c(F)cc(Oc2ncccc2-c2ccnc(N[C@H]3CCCNC3)n2)c(F)c1F` [Compound 196, (S)-N-(2,3,6-trifluoro-4-((3-(2-(piperidin-3-ylamino)pyrimidin-4-yl)pyridin-2-yl)oxy)phenyl)-1-(6-(trifluoromethyl)pyridin-3-yl)methanesulfonamide] stands 2.5 nM; under `Cc1c(Oc2ncccc2-c2ccnc(N[C@H]3CCCNC3)n2)ccc(NS(=O)(=O)Cc2ccccc2)c1F` [Compound 237, N-[2-Fluoro-3-methyl-4-[[3-[2-[[(3S)-3-piperidyl]amino]pyrimidin-4-yl]-2-pyridyl]oxy]phenyl]-1 phenylmethanesulfonamide], 8.4 nM. The same measure for `O=S(=O)(CC1CCC1(F)F)Nc1c(F)cc(Oc2ncccc2-c2ccnc(N[C@@H]3CNC[C@@H](F)C3)n2)c(F)c1F` (single isomer, unassigned) [Compound 264]: 1.6 nM; for `O=S(=O)(Nc1ccc(Cl)c(Oc2ncccc2-c2ccnc(N[C@H]3CCCNC3)n2)c1F)c1ccccc1Cl` [Compound 137, (S)-2-Chloro-N-(4-chloro-2-fluoro-3-((3-(2-(piperidin-3-ylamino)pyrimidin-4-yl)pyridin-2-yl)oxy)phenyl)benzenesulfonamide hydrochloride]: 7.4 nM.

Molecule `CC1(CF)CNCC(Nc2nccc(-c3cccnc3Oc3cc(F)c(NS(=O)(=O)Cc4ccccc4)c(F)c3F)n2)C1` (single isomer, unassigned) [Compound 295, 1-Phenyl-N-(2,3,6-trifluoro-4-((3-(2-((5-(fluoromethyl)-5-methylpiperidin-3-yl)amino)pyrimidin-4-yl)pyridin-2-yl)oxy)phenyl)methanesulfonamide] had an IC50 of 41 nM. Under `O=S(=O)(CCC(F)(F)F)Nc1cc(F)c(Oc2ncccc2-c2ccnc(N[C@H]3CCCNC3)n2)cc1F` [Compound 109, (S)-N-(2,5-difluoro-4-((3-(2-(piperidin-3-ylamino)pyrimidin-4-yl)pyridin-2-yl)oxy)phenyl)-3,3,3-trifluoropropane-1-sulfonamide hydrochloride] stands 26 nM. In the case of `C[C@H]1CNC[C@@H](Nc2nccc(-c3cccnc3Oc3cc(F)c(NS(=O)(=O)Cc4ccccc4)c(F)c3F)n2)C1` [Compound 165, 1-phenyl-N-(2,3,6-trifluoro-4-((3-(2-(((3S,5R)-5-methyl-3-piperidyl)amino)pyrimidin-4-yl)-2-pyridyl)oxy)phenyl)methanesulfonamide], the IC50 was determined as 2.7 nM. The same measure for `CC(F)C1CNCC(Nc2nccc(-c3cccnc3Oc3cc(F)c(NS(=O)(=O)Cc4ccccc4)c(F)c3F)n2)C1` (single isomer, unassigned) [Compound 343, 1-Phenyl-N-(2,3,6-trifluoro-4-((3-(2-((5-(1-fluoroethyl)piperidin-3-yl)amino)pyrimidin-4-yl)pyridin-2-yl)oxy)phenyl)methanesulfonamide hydrochloride]: 0.78 nM. Under `CN(C)CCNc1nccc(-c2cccnc2Oc2ccc(NS(=O)(=O)Cc3ccccc3)c(F)c2F)n1` [Compound 184, N-(4-((3-(2-((2-(dimethylamino)ethyl)amino)pyrimidin-4-yl)pyridin-2-yl)oxy)-2,3-difluorophenyl)-1-phenylmethanesulfonamide] stands 57 nM.

The values are drawn from patent publication US12071425B2 (Genentech, Inc., priority 2018, dated 2024).
